In patent US10233188B2, “CDK2/4/6 inhibitors” (priority 2016, dated 2019) one finds Ki data, which are given here for 19 molecules.

For the test, the target named is CDK2/Cyclin E1 (Homo sapiens (Human), UniProt P24941). Put plainly: biochemical. To be noted: CDK2_Ki (nM), phosphorylated CDK2/Cyclin E1, 150 μM ATP, Morrison tight-binding fit.
Procedure: The assay was initiated with the addition of ATP, following a fifteen minutes pre-incubation of enzyme and inhibitor at room temperature in the reaction mixture. The reaction was stopped after 45 minutes at room temperature by the addition of 50 μL of 80 mM EDTA, pH 7.5.
As for `Cc1cc2cnc(NC3CCN(S(=O)(=O)C(F)F)CC3)nc2n(C2CCCC2)c1=O` [Example 26, 8-cyclopentyl-2-({1-[(difluoromethyl)sulfonyl]piperidin-4-yl}amino)-6-methylpyrido[2,3-d]pyrimidin-7(8H)-one], the affinity corresponds to a Ki of 3.84 nM.

On to `C[C@@]1(O)CCC[C@H]1n1c(=O)ccc2cnc(NC3CCN(S(=O)(=O)C4CCS(=O)(=O)C4)CC3)nc21` (single isomer, unassigned; isomer b) [Example 71], for which the Ki – broadly, the dissociation constant of the complex between target and ligand, obtained from inhibition or displacement – was determined as 0.25 nM.

For the molecule `C[C@]1(O)CCC[C@@H]1n1c(=O)ccc2cnc(NC3CCN(S(=O)(=O)C(F)(F)F)CC3)nc21` (single isomer, unassigned) [Example 89, (+)-8-[(1R*,2R*)-2-hydroxy-2-methylcyclopentyl]-2-({1-[(trifluoromethyl)sulfonyl]piperidin-4-yl}amino)pyrido[2,3-d]pyrimidin-7(8H)-one], affinity was put at a Ki of 17.6 nM.

`C=Cc1cc2cnc(NC3CCN(S(C)(=O)=O)CC3)nc2n(C2CCCC2)c1=O` [Example 138, 8-cyclopentyl-6-ethenyl-2-{[1-(methylsulfonyl)piperidin-4-yl]amino}pyrido[2,3-d]pyrimidin-7(8H)-one] yielded a Ki of 0.87 nM.

Turning to `CS(=O)(=O)N1CC[C@@H](Nc2ncc3cc(CCO)c(=O)n(C4CCCC4)c3n2)[C@H](F)C1` (single isomer, unassigned) [Example 157, (+)-8-cyclopentyl-2-{[(3S*,4S*)-3-fluoro-1-(methylsulfonyl)piperidin-4-yl]amino}-6-(2-hydroxyethyl)pyrido[2,3-d]pyrimidin-7(8H)-one], the inhibitory constant (Ki) stood at 36 nM.

With `CNS(=O)(=O)N1CCC(Nc2ncc3ccc(=O)n([C@H]4CCC[C@]4(C)O)c3n2)CC1` (single isomer, unassigned) [Example 57, (+)-4-({8-[(1R*,2R*)-2-hydroxy-2-methylcyclopentyl]-7-oxo-7,8-dihydropyrido[2,3-d]pyrimidin-2-yl}amino)-N-methylpiperidine-1-sulfonamide], affinity was put at a Ki of 5.21 nM.

For `C[C@@H]1[C@H](n2c(=O)ccc3cnc(NC4CCN(S(C)(=O)=O)CC4)nc32)CC[C@@H]1O` (single isomer, unassigned) [Example 208, (−)-8-[(1R*,2R*,3S*)-3-hydroxy-2-methylcyclopentyl]-2-{[1-(methylsulfonyl)piperidin-4-yl]amino}pyrido[2,3-d]pyrimidin-7(8H)-one], the affinity corresponds to a Ki of 12.4 nM.

`Cc1cc2cnc(NC3CCN(S(=O)(=O)N(C)C)CC3)nc2n(C2CCCC2)c1=O` [Example 24, 4-[(8-cyclopentyl-6-methyl-7-oxo-7,8-dihydropyrido[2,3-d]pyrimidin-2-yl)amino]-N,N-dimethylpiperidine-1-sulfonamide]: the Ki was determined as 1.59 nM.

Molecule `Cc1cc2cnc(NC3CCN(S(=O)(=O)NC[C@@H]4CCCO4)CC3)nc2n([C@@H]2CCC[C@@]2(C)O)c1=O` (single isomer, unassigned) [Example 100, (−)-4-({8-[(1R*,2R*)-2-hydroxy-2-methylcyclopentyl]-6-methyl-7-oxo-7,8-dihydropyrido[2,3-d]pyrimidin-2-yl}amino)-N-[(2S)-tetrahydrofuran-2-ylmethyl]piperidine-1-sulfonamide] displayed an inhibitory constant (Ki) of 0.27 nM.

Molecule `Cc1cc2cnc(NC3CCN(S(C)(=O)=O)CC3)nc2n([C@H]2CCC[C@H](O)C2)c1=O` (single isomer, unassigned) [Example 33, (−)-8-[(1R*,3R*)-3-hydroxycyclohexyl]-6-methyl-2-{[1-(methylsulfonyl)piperidin-4-yl]amino}pyrido[2,3-d]pyrimidin-7(8H)-one] registered an inhibitory constant (Ki) of 42.6 nM.

Take `C[C@@]1(O)CCC[C@H]1n1c(=O)ccc2cnc(NC3CCN(S(=O)(=O)NC[C@@H]4CCCO4)CC3)nc21` (single isomer, unassigned) [Example 62, (−)-4-({8-[(1R*,2R*)-2-hydroxy-2-methylcyclopentyl]-7-oxo-7,8-dihydropyrido[2,3-d]pyrimidin-2-yl}amino)-N-[(2S)-tetrahydrofuran-2-ylmethyl]piperidine-1-sulfonamide]: the affinity corresponds to a Ki of 0.35 nM.

In turn, `CNS(=O)(=O)N1CCC(Nc2ncc3cc(C)c(=O)n([C@H]4CCC[C@H]4C)c3n2)CC1` [Example 43, N-methyl-4-({6-methyl-8-[(1S,2R)-2-methylcyclopentyl]-7-oxo-7,8-dihydropyrido[2,3-d]pyrimidin-2-yl}amino)piperidine-1-sulfonamide] yielded an inhibition constant Ki of 1.56 nM.

`Cc1cc2cnc(NC3CCN(S(=O)(=O)NC[C@@H]4CCCO4)CC3)nc2n([C@H]2CCC[C@]2(C)O)c1=O` (single isomer, unassigned) [Example 101, (+)-4-({8-[(1R*,2R*)-2-hydroxy-2-methylcyclopentyl]-6-methyl-7-oxo-7,8-dihydropyrido[2,3-d]pyrimidin-2-yl}amino)-N-[(2S)-tetrahydrofuran-2-ylmethyl]piperidine-1-sulfonamide] gave an inhibition constant Ki of 3.59 nM.

The molecule `C[C@@]1(O)CCCC1n1c(=O)ccc2cnc(NC3CCN(S(=O)(=O)NC[C@H]4CCCO4)CC3)nc21` (single isomer, unassigned; (-)) [Example 64, (−)-4-({8-[(1R*,2R*)-2-hydroxy-2-methylcyclopentyl]-7-oxo-7,8-dihydropyrido[2,3-d]pyrimidin-2-yl}amino)-N-[(2R)-tetrahydrofuran-2-ylmethyl]piperidine-1-sulfonamide] had a Ki of 0.35 nM.

Turning to `CN(C)S(=O)(=O)N1CCC(Nc2ncc3ccc(=O)n(C4CCCC4)c3n2)CC1` [Example 12, 4-[(8-cyclopentyl-7-oxo-7,8-dihydropyrido[2,3-d]pyrimidin-2-yl)amino]-N,N-dimethylpiperidine-1-sulfonamide], the affinity corresponds to a Ki of 1.12 nM.

`O=c1ccc2cnc(NC3CCN(S(=O)(=O)C(F)F)CC3)nc2n1C1CCCC1` [Example 14, 8-cyclopentyl-2-({1-[(difluoromethyl)sulfonyl]piperidin-4-yl}amino)pyrido[2,3-d]pyrimidin-7(8H)-one] had an inhibitory constant (Ki) of 2.5 nM.

`Cc1cc2cnc(NC3CCN(S(=O)(=O)NC[C@H]4CCCO4)CC3)nc2n([C@@H]2CCC[C@@]2(C)O)c1=O` (single isomer, unassigned) [Example 102, (−)-4-({8-[(1R*,2R*)-2-hydroxy-2-methylcyclopentyl]-6-methyl-7-oxo-7,8-dihydropyrido[2,3-d]pyrimidin-2-yl}amino)-N-[(2H)-tetrahydrofuran-2-ylmethyl]piperidine-1-sulfonamide] showed a Ki of 0.24 nM.

The molecule `C[C@]1(O)CCC[C@@H]1n1c(=O)ccc2cnc(NC3CCN(S(=O)(=O)NC[C@@H]4CCCO4)CC3)nc21` (single isomer, unassigned) [Example 63, (+)-4-({8-[(1R*,2R*)-2-hydroxy-2-methylcyclopentyl]-7-oxo-7,8-dihydropyrido[2,3-d]pyrimidin-2-yl}amino)-N-[(2S)-tetrahydrofuran-2-ylmethyl]piperidine-1-sulfonamide] displayed an inhibition constant (Ki) of 4.51 nM.

With `C=CCc1cc2cnc(NC3CCN(S(C)(=O)=O)CC3)nc2n(C2CCCC2)c1=O` [Example 139, 8-cyclopentyl-2-{[1-(methylsulfonyl)piperidin-4-yl]amino}-6-(prop-2-en-1-yl)pyrido[2,3-d]pyrimidin-7(8H)-one], the inhibition constant Ki was 4.05 nM.
